Test system: KMS.12.BM cells
Experiment: KMS.12.BM cell viability assay (Cell Titer-GLO, ATP quantitation)
Type: cell-based
Conditions: human myeloma cells, 3 days, concentration required for 50% cell death
Procedure: Example B1: KMS.12.BM Cell Viability Assay
KMS.12.BM cell line (human myeloma) was purchased from JCRB (Osaka, Japan) and maintained in RPMI with 10% FBS culture medium. To measure the cytotoxic activity of the compounds through ATP quantitation, the KMS.12.BM cells are plated in the RPMI culture medium at 5000 cells/well/per 100 μL into a 96-well polystyrene clear black tissue culture plate (Greiner-bio-one through VWR, NJ), in the presence or absence of a concentration range of test compounds. After 3 days, […] Cell Titer-GLO Luminescent (Promega, Madison, Wis.) cell culture agent is added to each well for 10 minutes at room temperature to stabilize the luminescent signal. This determines the number of viable cells in culture based on quantitation of the ATP present, which signals the presence of metabolically active cells. Luminescence is measured with the Top Count 384 (Packard Bioscience through Perkin Elmer, Boston, Mass.). Compound inhibition is determined relative to cells cultured with no drug and the IC50 is reported as the compound concentration required for 50% cell death.

SMILES	IC50 (KMS-12-BM, 72 h) [µM]	IC50 [µM]
COc1cc2c(c(-c3cn(C)c(=O)c4[nH]ccc34)c1)OC(C(C)C)C(=O)N2 (single isomer, unassigned) [Example 9A, 2-isopropyl-6-methoxy-8-(6-methyl-7-oxo-6,7-dihydro-1H-pyrrolo[2,3-c]pyridin-4-yl)-2H-1,4-benzoxazin-3(4H)-one]	≤ 1	
COc1cc2c(c(-c3cn(C)c(=O)c4[nH]ccc34)c1)OC(c1ccccc1)C(=O)N2 (single isomer, unassigned) [Example 24A, 6-methoxy-8-(6-methyl-7-oxo-6,7-dihydro-1H-pyrrolo[2,3-c]pyridin-4-yl)-2-phenyl-2H-1,4-benzoxazin-3(4H)-one]	≤ 1	
COc1cc2c(c(-c3cn(C)c(=O)c4[nH]ccc34)c1)OC(c1ccccc1)C(=O)N2 (single isomer, unassigned) [Example 24B, 6-methoxy-8-(6-methyl-7-oxo-6,7-dihydro-1H-pyrrolo[2,3-c]pyridin-4-yl)-2-phenyl-2H-1,4-benzoxazin-3(4H)-one]		≤ 1
COc1cc2c(c(-c3cn(C)c(=O)c4[nH]ccc34)c1)OC(C1CCCC1)C(=O)N2 (single isomer, unassigned) [Example 35A, 2-Cyclopentyl-6-methoxy-8-(6-methyl-7-oxo-6,7-dihydro-1H-pyrrolo[2,3-c]pyridin-4-yl)-2H-1,4-benzoxazin-3(4H)-one]	≤ 1	
COc1cc2c(c(-c3cn(C)c(=O)c4[nH]ccc34)c1)OC(C1CCCC1)C(=O)N2 (single isomer, unassigned) [Example 35B, 2-Cyclopentyl-6-methoxy-8-(6-methyl-7-oxo-6,7-dihydro-1H-pyrrolo[2,3-c]pyridin-4-yl)-2H-1,4-benzoxazin-3(4H)-one]		≤ 1
COc1cc2c(c(-c3cn(C)c(=O)c4[nH]ncc34)c1)OC(C1CCCC1)C(=O)N2 (single isomer, unassigned) [Example 42A, 2-cyclopentyl-6-methoxy-8-(6-methyl-7-oxo-6,7-dihydro-1H-pyrazolo[3,4-c]pyridin-4-yl)-2H-1,4-benzoxazin-3(4H)-one]	≤ 1	
COc1cc2c(c(-c3cn(C)c(=O)c4[nH]ncc34)c1)OC(C1CCCC1)C(=O)N2 (single isomer, unassigned) [Example 42B, 2-cyclopentyl-6-methoxy-8-(6-methyl-7-oxo-6,7-dihydro-1H-pyrazolo[3,4-c]pyridin-4-yl)-2H-1,4-benzoxazin-3(4H)-one]		≤ 1
CC(C)C1Oc2c(cc(S(C)(=O)=O)cc2-c2cn(C)c(=O)c3[nH]ccc23)NC1=O (single isomer, unassigned) [Example 44A, 2-isopropyl-8-(6-methyl-7-oxo-6,7-dihydro-1H-pyrrolo[2,3-c]pyridin-4-yl)-6-(methylsulfonyl)-2H-1,4-benzoxazin-3(4H)-one]	≤ 1	
CC(C)C1Oc2c(cc(S(C)(=O)=O)cc2-c2cn(C)c(=O)c3[nH]ccc23)NC1=O (single isomer, unassigned) [Example 44B, 2-isopropyl-8-(6-methyl-7-oxo-6,7-dihydro-1H-pyrrolo[2,3-c]pyridin-4-yl)-6-(methylsulfonyl)-2H-1,4-benzoxazin-3(4H)-one]		≤ 1
CC(C)C1Oc2c(-c3cn(C)c(=O)c4[nH]ccc34)cc(S(C)(=O)=O)cc2N(C)C1=O (single isomer, unassigned) [Example 47A, 2-isopropyl-4-methyl-8-(6-methyl-7-oxo-6,7-dihydro-1H-pyrrolo[2,3-c]pyridin-4-yl)-6-(methylsulfonyl)-2H-1,4-benzoxazin-3(4H)-one]	≤ 1	
CC(C)C1Oc2c(-c3cn(C)c(=O)c4[nH]ccc34)cc(S(C)(=O)=O)cc2N(C)C1=O (single isomer, unassigned) [Example 47B, 2-isopropyl-4-methyl-8-(6-methyl-7-oxo-6,7-dihydro-1H-pyrrolo[2,3-c]pyridin-4-yl)-6-(methylsulfonyl)-2H-1,4-benzoxazin-3(4H)-one]		≤ 1
CC(O)c1cc(-c2cn(C)c(=O)c3[nH]ccc23)c2c(c1)N(C)C(=O)C(C)(C)O2 (single isomer, unassigned) [Example 83A, 6-(1-hydroxyethyl)-2,2,4-trimethyl-8-(6-methyl-7-oxo-6,7-dihydro-1H-pyrrolo[2,3-c]pyridin-4-yl)-2H-1,4-benzoxazin-3(4H)-one]	≤ 1	
CC(O)c1cc(-c2cn(C)c(=O)c3[nH]ccc23)c2c(c1)N(C)C(=O)C(C)(C)O2 (single isomer, unassigned) [Example 83B, 6-(1-hydroxyethyl)-2,2,4-trimethyl-8-(6-methyl-7-oxo-6,7-dihydro-1H-pyrrolo[2,3-c]pyridin-4-yl)-2H-1,4-benzoxazin-3(4H)-one]		≤ 1
Cn1cc(-c2cccc3c2OC(c2ccccc2)C(=O)N3)c2cc[nH]c2c1=O (stereo not shown) [Example 1, 8-(6-methyl-7-oxo-6,7-dihydro-1H-pyrrolo[2,3-c]pyridin-4-yl)-2-phenyl-2H-1,4-benzoxazin-3(4H)-one]	≤ 1	
CC(C)C1Oc2c(cccc2-c2cn(C)c(=O)c3[nH]ccc23)NC1=O (stereo not shown) [Example 2, 2-isopropyl-8-(6-methyl-7-oxo-6,7-dihydro-1H-pyrrolo[2,3-c]pyridin-4-yl)-2H-1,4-benzoxazin-3(4H)-one]	≤ 1	
CC1Oc2c(cccc2-c2cn(C)c(=O)c3[nH]ccc23)NC1=O (stereo not shown) [Example 3, 2-methyl-8-(6-methyl-7-oxo-6,7-dihydro-1H-pyrrolo[2,3-c]pyridin-4-yl)-2H-1,4-benzoxazin-3(4H)-one]	≤ 1	
CCC1Oc2c(cccc2-c2cn(C)c(=O)c3[nH]ccc23)NC1=O (stereo not shown) [Example 4, 2-ethyl-8-(6-methyl-7-oxo-6,7-dihydro-1H-pyrrolo[2,3-c]pyridin-4-yl)-2H-1,4-benzoxazin-3(4H)-one]	≤ 1	
Cn1cc(-c2cccc3c2OC(C2CC2)C(=O)N3)c2cc[nH]c2c1=O (stereo not shown) [Example 6, 2-cyclopropyl-8-(6-methyl-7-oxo-6,7-dihydro-1H-pyrrolo[2,3-c]pyridin-4-yl)-2H-1,4-benzoxazin-3(4H)-one]	≤ 1	
Cn1cc(-c2cccc3c2OC(C2CCOCC2)C(=O)N3)c2cc[nH]c2c1=O (stereo not shown) [Example 7, 8-(6-methyl-7-oxo-6,7-dihydro-1H-pyrrolo[2,3-c]pyridin-4-yl)-2-(tetrahydro-2H-pyran-4-yl)-2H-1,4-benzoxazin-3(4H)-one]	≤ 1	
CCC1Oc2c(-c3cn(C)c(=O)c4[nH]ccc34)cccc2N(C)C1=O (stereo not shown) [Example 8, 2-ethyl-4-methyl-8-(6-methyl-7-oxo-6,7-dihydro-1H-pyrrolo[2,3-c]pyridin-4-yl)-2H-1,4-benzoxazin-3(4H)-one]	≤ 1	
COc1cc2c(c(-c3cn(C)c(=O)c4[nH]ccc34)c1)OC(C(C)C)C(=O)N2 (stereo not shown) [Example 9, 2-isopropyl-6-methoxy-8-(6-methyl-7-oxo-6,7-dihydro-1H-pyrrolo[2,3-c]pyridin-4-yl)-2H-1,4-benzoxazin-3(4H)-one]	≤ 1	
COc1cc(-c2cn(C)c(=O)c3[nH]ccc23)c2c(c1)N(C)C(=O)C(C(C)C)O2 (stereo not shown) [Example 10, 2-isopropyl-6-methoxy-4-methyl-8-(6-methyl-7-oxo-6,7-dihydro-1H-pyrrolo[2,3-c]pyridin-4-yl)-2H-1,4-benzoxazin-3(4H)-one]	≤ 1	

— patent publication US10472358B2, “1H-pyrrolo[2,3-c]pyridin-7(6H)-ones and pyrazolo[3,4-c]pyridin-7(6H)-ones as inhibitors of BET proteins” (Incyte Corporation, priority 2014, dated 2019)
